Results from ChEMBL document CHEMBL1155947, “Discovery of a novel series of benzoic acid derivatives as potent and selective human beta3 adrenergic receptor agonists with good oral bioavailability. 3. Phenylethanolaminotetraline (PEAT) skeleton containing biphenyl or biphenyl ether moiety” (J Med Chem, 2008).

Columns and labels:
[1] = molecular target: Beta-3 adrenergic receptor (Homo sapiens, UniProt P13945); assay: Agonist activity at human cloned beta3 adrenergic receptor expressed in CHO cells assessed as cAMP accumulation; assay type: functional, cell-based
Homo sapiens = species: Homo sapiens; assay: Ratio of EC50 for human cloned beta-1 adrenergic receptor to EC50 for human cloned beta3 adrenergic receptor
[2] = molecular target: Beta-2 adrenergic receptor (Homo sapiens, UniProt P07550); assay: Agonist activity at human beta2 adrenergic receptor expressed in CHO cells assessed as cAMP accumulation; assay type: functional, cell-based
[3] = Cmax in dog at 0.32 mg/kg, po by cassette assay; assay type: ADME, organism-based, Canis lupus familiaris; parameters: dose 0.32 mg/kg, route oral; settings: in vivo
[4] = AUC (0 to 24 hrs) in dog at 0.32 mg/kg, po by cassette assay; assay type: ADME, organism-based, Canis lupus familiaris; parameters: time < 24 hr, dose 0.32 mg/kg, route oral; settings: plasma
[5] = Terminal half life in dog at 0.1 mg/mL, iv by cassette assay; assay type: ADME, organism-based, Canis lupus familiaris; settings: in vivo
[6] = Total clearance in dog at 0.1 mg/mL, iv by cassette assay; assay type: ADME, organism-based, Canis lupus familiaris; settings: in vivo
[7] = Bioavailability in dog at 0.1 mg/mL, iv by cassette assay; assay type: ADME, organism-based, Canis lupus familiaris; settings: in vivo
Canis familiaris [8] = assay: Ratio of Cmax for drug to Cmax for 3-[((7S)-7-{[(2R)-2-(3-Chlorophenyl)-2-hydroxyethyl]amino}-5,6,7,8-tetrahydro-2-naphthalenyl)oxy]benzoic acid hydrochloride in dog at 0.1 or 0.20 mg/kg, po by cassette dosing assay; assay type: ADME, organism-based, Canis lupus familiaris; parameters: dose 0.2 mg/kg, route oral; settings: in vivo, 0.2 mg/kg
Canis familiaris [9] = assay: Ratio of AUC for drug to AUC for 3-[((7S)-7-{[(2R)-2-(3-Chlorophenyl)-2-hydroxyethyl]amino}-5,6,7,8-tetrahydro-2-naphthalenyl)oxy]benzoic acid hydrochloride in dog at 0.1 or 0.20 mg/kg, po by cassette dosing assay; assay type: ADME, organism-based, Canis lupus familiaris; parameters: dose 0.2 mg/kg, route oral; settings: in vivo, 0.2 mg/kg
[10] = molecular target: Beta-1 adrenergic receptor (Homo sapiens, UniProt P08588)
Description: Agonist activity at human cloned beta-1 adrenergic receptor expressed in CHO cells assessed as cAMP accumulation

[11] = Cmax in dog at 0.2 mg/kg, po by cassette assay; assay type: ADME, organism-based, Canis lupus familiaris; parameters: dose 0.2 mg/kg, route oral; settings: in vivo
[12] = AUC (0 to 24 hrs) in dog at 0.2 mg/kg, po by cassette assay; assay type: ADME, organism-based, Canis lupus familiaris; parameters: time < 24 hr, dose 0.2 mg/kg, route oral; settings: plasma
Canis familiaris [13] = assay: Ratio of Cmax for drug to Cmax for 4-((7S)-7-{[(2R)-2-(3-Chlorophenyl)-2-hydroxyethyl]amino}-5,6,7,8-tetrahydro-2-naphthalenyl)benzoic acid hydrochloride in dog at 0.1 or 0.20 mg/kg, po by cassette dosing assay; assay type: ADME, organism-based, Canis lupus familiaris; parameters: dose 0.2 mg/kg, route oral; settings: in vivo, 0.2 mg/kg
Canis familiaris [14] = assay: Ratio of AUC for drug to AUC for 4-((7S)-7-{[(2R)-2-(3-Chlorophenyl)-2-hydroxyethyl]amino}-5,6,7,8-tetrahydro-2-naphthalenyl)benzoic acid hydrochloride in dog at 0.1 or 0.20 mg/kg, po by cassette dosing assay; assay type: ADME, organism-based, Canis lupus familiaris; parameters: dose 0.2 mg/kg, route oral; settings: in vivo, 0.2 mg/kg
[15] = Cmax in rat at 0.5 mg/kg, po by cassette assay; assay type: ADME, organism-based; parameters: dose 0.5 mg/kg, route oral; settings: in vivo
[16] = AUC (0 to 24 hrs) in rat at 0.5 mg/kg, po by cassette assay; assay type: ADME, organism-based; parameters: time < 24 hr, dose 0.5 mg/kg, route oral; settings: plasma
[17] = Cmax in monkey at 0.32 mg/kg, po; assay type: ADME, organism-based, Macaca mulatta; parameters: dose 0.32 mg/kg, route oral; settings: rhesus monkey, in vivo
[18] = AUC (0 to 24 hrs) in monkey at 0.32 mg/kg, po; assay type: ADME, organism-based, Macaca mulatta; parameters: time < 24 hr, dose 0.32 mg/kg, route oral; settings: rhesus monkey, plasma
[19] = Terminal half life in rat at 0.50 mg/kg, iv by cassette assay; assay type: ADME, organism-based; parameters: dose 0.5 mg/kg, route intravenous; settings: in vivo, 0.5 mg/kg
[20] = Total clearance in rat at 0.50 mg/kg, iv by cassette assay; assay type: ADME, organism-based; parameters: dose 0.5 mg/kg, route intravenous; settings: in vivo, 0.5 mg/kg
[21] = Oral bioavailability in rat at 0.50 mg/kg by cassette assay; assay type: ADME, organism-based; settings: in vivo, 0.5 mg/kg
[22] = Terminal half life in monkey at 0.32 mg/kg, iv by cassette assay; assay type: ADME, organism-based, Macaca mulatta; parameters: dose 0.32 mg/kg, route intravenous; settings: rhesus monkey, in vivo
[23] = Total clearance in monkey at 0.32 mg/kg, iv by cassette assay; assay type: ADME, organism-based, Macaca mulatta; parameters: dose 0.32 mg/kg, route intravenous; settings: rhesus monkey, in vivo
[24] = Oral bioavailability in monkey at 0.32 mg/kg by cassette assay; assay type: ADME, organism-based, Macaca mulatta; settings: rhesus monkey, in vivo
[25] = Terminal half life in dog at 0.1 mg/kg, iv by cassette assay; assay type: ADME, organism-based, Canis lupus familiaris; parameters: dose 0.1 mg/kg, route intravenous; settings: in vivo
[26] = Total clearance in dog at 0.1 mg/kg, iv by cassette assay; assay type: ADME, organism-based, Canis lupus familiaris; parameters: dose 0.1 mg/kg, route intravenous; settings: in vivo
[27] = Oral bioavailability in dog at 0.1 mg/kg by cassette assay; assay type: ADME, organism-based, Canis lupus familiaris; settings: in vivo
[28] = molecular target: Beta-3 adrenergic receptor (Canis lupus familiaris, UniProt O02662); assay: Agonist activity at dog beta3 adrenergic receptor expressed in CHO cells assessed as cAMP accumulation; assay type: functional, cell-based
Canis familiaris [29] = assay: Inhibition of carbachol-induced increase of intravesical pressure in Beagle dog OAB model at 32 ug/kg,; assay type: functional; settings: Canis lupus familiaris
[30] = Protein binding in Beagle dog serum at 32 ug/kg, iv; assay type: ADME, organism-based, Canis lupus familiaris; settings: 0.032 mg/kg, read-out: PB (converted)
[31] = Selectivity for human beta3 adrenergic receptor over dog beta3 adrenergic receptor
[32] = Oral bioavailability in rat at 0.83 mg/kg; assay type: ADME, organism-based; settings: in vivo
[33] = Oral bioavailability in dog at 0.83 mg/kg; assay type: ADME, organism-based, Canis lupus familiaris; settings: in vivo
[34] = Oral bioavailability in monkey at 0.83 mg/kg; assay type: ADME, organism-based, Macaca mulatta; settings: rhesus monkey, in vivo

Beta-3 adrenergic receptor (Homo sapiens, UniProt P13945), sequence (P13945 whole entry): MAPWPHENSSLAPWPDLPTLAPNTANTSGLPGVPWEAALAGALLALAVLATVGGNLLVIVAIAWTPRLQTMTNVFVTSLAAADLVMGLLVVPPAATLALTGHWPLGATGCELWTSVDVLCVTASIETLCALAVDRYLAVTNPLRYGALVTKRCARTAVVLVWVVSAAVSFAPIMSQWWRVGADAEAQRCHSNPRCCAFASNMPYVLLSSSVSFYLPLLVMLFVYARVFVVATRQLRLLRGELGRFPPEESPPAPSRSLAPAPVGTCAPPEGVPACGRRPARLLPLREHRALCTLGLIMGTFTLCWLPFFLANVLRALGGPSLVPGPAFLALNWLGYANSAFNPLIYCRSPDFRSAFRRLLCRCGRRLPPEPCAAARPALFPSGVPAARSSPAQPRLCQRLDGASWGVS
Beta-2 adrenergic receptor, sequence (P07550 whole entry): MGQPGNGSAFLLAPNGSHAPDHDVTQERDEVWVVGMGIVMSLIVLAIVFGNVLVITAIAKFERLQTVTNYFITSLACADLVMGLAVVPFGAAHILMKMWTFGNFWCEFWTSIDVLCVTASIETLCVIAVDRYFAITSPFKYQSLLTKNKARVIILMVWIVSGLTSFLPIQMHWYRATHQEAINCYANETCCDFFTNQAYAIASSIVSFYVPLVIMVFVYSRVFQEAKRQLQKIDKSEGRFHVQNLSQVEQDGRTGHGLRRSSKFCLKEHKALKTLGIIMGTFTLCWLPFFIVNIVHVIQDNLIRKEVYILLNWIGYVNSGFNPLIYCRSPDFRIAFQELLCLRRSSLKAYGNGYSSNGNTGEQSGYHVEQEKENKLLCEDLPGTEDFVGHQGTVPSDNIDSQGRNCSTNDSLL
Beta-1 adrenergic receptor, sequence (P08588 whole entry): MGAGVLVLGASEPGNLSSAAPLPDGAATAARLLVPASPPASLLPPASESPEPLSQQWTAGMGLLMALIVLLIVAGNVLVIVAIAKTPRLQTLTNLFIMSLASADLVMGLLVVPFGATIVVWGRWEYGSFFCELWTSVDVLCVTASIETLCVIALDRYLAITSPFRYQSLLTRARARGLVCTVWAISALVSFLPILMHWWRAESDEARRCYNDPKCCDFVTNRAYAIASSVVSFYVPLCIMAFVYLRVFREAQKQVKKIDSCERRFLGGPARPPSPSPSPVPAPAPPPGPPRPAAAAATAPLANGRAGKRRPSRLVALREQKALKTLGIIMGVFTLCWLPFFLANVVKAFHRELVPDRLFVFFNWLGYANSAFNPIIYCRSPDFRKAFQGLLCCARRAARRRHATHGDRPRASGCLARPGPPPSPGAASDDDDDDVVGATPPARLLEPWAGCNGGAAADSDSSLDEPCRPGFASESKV
Beta-3 adrenergic receptor (Canis lupus familiaris, UniProt O02662), sequence (O02662 whole entry): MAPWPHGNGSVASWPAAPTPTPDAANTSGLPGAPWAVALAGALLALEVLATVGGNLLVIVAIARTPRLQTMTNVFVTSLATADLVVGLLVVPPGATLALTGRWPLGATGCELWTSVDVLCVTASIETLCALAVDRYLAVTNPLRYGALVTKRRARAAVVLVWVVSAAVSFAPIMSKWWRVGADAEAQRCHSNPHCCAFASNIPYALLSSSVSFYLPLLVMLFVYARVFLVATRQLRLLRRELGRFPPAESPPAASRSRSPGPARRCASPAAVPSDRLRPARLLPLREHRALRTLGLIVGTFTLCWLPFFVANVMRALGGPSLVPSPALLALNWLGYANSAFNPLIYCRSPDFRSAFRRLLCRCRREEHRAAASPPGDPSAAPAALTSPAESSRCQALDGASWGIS

| EC50 [1] [nM] | Ratio EC50 (Homo sapiens) | EC50 [2] [nM] | half-life [5] [h] | clearance [6] [mL/min/kg] | bioavailability [7] [%] | EC50 [10] [nM] | Cmax [11] [ng/mL] | AUC(0-t) at 24 h [12] [ng·h/mL] | Ratio (Canis familiaris [13]) | Ratio AUC (Canis familiaris [14]) | fraction unbound [30] | SMILES | Cmax [3] [ng/mL] | AUC(0-t) at 24 h [4] [ng·h/mL] | inhibition in vivo at 0.032 mg/kg (Canis familiaris [29]) [%] | further results |
| --- | --- | --- | --- | --- | --- | --- | --- | --- | --- | --- | --- | --- | --- | --- | --- | --- |
| 0.38 | 2410 | > 1000 |  |  |  | 917 | 113 | 1980 | 0.71 | 1.25 | 0.03 | O=C(O)c1ccc(-c2ccc3c(c2)C[C@@H](NC[C@H](O)c2ccc(Cl)cc2)CC3)cc1 |  |  | 33 | Cmax [15]: 65 ng/mL; AUC(0-t) at 24 h [16]: 470 ng·h/mL; Cmax [17]: 91.2 ng/mL; AUC(0-t) at 24 h [18]: 722 ng·h/mL; half-life [19]: 13.6 h; clearance [20]: 11.4 mL/min/kg; bioavailability [21]: 63.4%; half-life [22]: 7.7 h; clearance [23]: 6.7 mL/min/kg; bioavailability [24]: 81.7%; half-life [25]: 14.3 h; clearance [26]: 1.7 mL/min/kg; bioavailability [27]: > 95%; EC50 [28]: 25 nM; Selectivity ratio [31]: 65.8 |
| 2.8 | > 357 | > 1000 | 12.2 | 1.2 | 71 | > 1000 | 97.4 | 1980 | 1 | 1 |  | O=C(O)c1ccc(-c2ccc3c(c2)C[C@@H](NC[C@H](O)c2cccc(Cl)c2)CC3)cc1 |  |  |  |  |

Continued, compound first:

| SMILES | EC50 [1] [nM] | Ratio EC50 (Homo sapiens) | EC50 [2] [nM] | half-life [5] [h] | clearance [6] [mL/min/kg] | bioavailability [7] [%] | EC50 [10] [nM] | Cmax [11] [ng/mL] | AUC(0-t) at 24 h [12] [ng·h/mL] | Ratio (Canis familiaris [13]) | Ratio AUC (Canis familiaris [14]) | fraction unbound [30] | Cmax [3] [ng/mL] | AUC(0-t) at 24 h [4] [ng·h/mL] | inhibition in vivo at 0.032 mg/kg (Canis familiaris [29]) [%] | further results |
| --- | --- | --- | --- | --- | --- | --- | --- | --- | --- | --- | --- | --- | --- | --- | --- | --- |
| O=C(O)c1cccc(Oc2ccc3c(c2)C[C@@H](NC[C@H](O)c2cccc(Cl)c2)CC3)c1 | 7.1 | > 138 | > 1000 | 7.9 | 2.4 | 81 | > 1000 |  |  |  |  |  | 151 | 2000 |  | Ratio (Canis familiaris [8]): 1; Ratio AUC (Canis familiaris [9]): 1 |
| CCOC(=O)COc1ccc2c(c1)C[C@@H](NC[C@H](O)c1cccc(Cl)c1)CCC2 |  |  |  |  |  |  |  |  |  |  |  | 0.06 |  |  | 40.8 | bioavailability [32]: 29%; bioavailability [33]: 73%; bioavailability [34]: 35% |
| O=C(O)c1ccc(Oc2ccc3c(c2)C[C@@H](NC[C@H](O)c2cccc(Cl)c2)CC3)nc1 | 1.47 | 50 | > 1000 | 2.8 | 10.8 | 61 | 70 |  |  |  |  |  | 49 | 320 |  |  |
